Measured values published in patent US20110028509A1, “Sulfonamides” (MERCK SERONO SA, priority 2008, published 2011).

Legend:
CXCR3 [1] = biological target: T1, CXCR3 (Homo sapiens, UniProt P49682); assay: Chemotaxis assay ITAC (CXCL11), L1.2-CXCR3 cells; format: cell-based; parameters: expressed in transfected cells; settings: 1 nM CXCL11 (I-TAC), 4 hours
T1 sequence (P49682 1-368): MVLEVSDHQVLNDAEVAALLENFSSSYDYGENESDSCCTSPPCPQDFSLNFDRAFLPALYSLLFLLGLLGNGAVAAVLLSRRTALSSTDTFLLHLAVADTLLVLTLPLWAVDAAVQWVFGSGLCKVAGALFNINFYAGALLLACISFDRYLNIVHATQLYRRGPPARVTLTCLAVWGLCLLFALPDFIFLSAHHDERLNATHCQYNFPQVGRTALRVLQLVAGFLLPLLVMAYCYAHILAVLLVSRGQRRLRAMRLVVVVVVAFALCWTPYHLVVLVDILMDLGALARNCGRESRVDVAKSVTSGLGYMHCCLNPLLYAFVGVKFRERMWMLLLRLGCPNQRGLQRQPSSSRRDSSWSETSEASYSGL
Procedure, shortened: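 Murine pre-B L1.2 cells stably expressing human CXCR3, pretreated 24 h with 5 mM butyric acid, preincubated with compound 30 min at 37 °C in 1% DMSO. Migration toward 1 nM CXCL11 (also with compound) through 8 μm filters for 4 h at 37 °C; migrated cells counted with CyQuant GR dye.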

CXCR3 [2] = biological target: T1, CXCR3; assay: Radioligand binding, scintillation proximity assay ([125I]IP-10 or [125I]I-TAC competition) on CHO-CXCR3 cell membranes; parameters: host or cells: CHO cells stably expressing hCXCR3; settings: [125I]IP-10, human CXCR3 cell membranes, Cheng-Prusoff; read-out: Binding Ki (μM) IP10
Description: Human chinese hamster ovary (CHO) cell line stably expressing hCXCR3 was purchased from Euroscreen (Belgium) and culture in HAM's F12 (Invitrogen) containing 10% heat inactivated fetal calf serum (Cancerra, Australia), 50 units ml−1 penicillin, 50 μml−1 streptomycin, (Invitrogen, USA) and 400 μg/ml geneticin (G418) (Calbiochem, San Diego), according to the manufacturer.
CHO cells expressing the human CXCR3 were disrupted by nitrogen cavitation (Parr Instruments, USA) at 4° C., 800 p.s.i. for 30 min in 50 mM Tris-HCl pH 7.5, 2 mM EDTA, 250 mM Sucrose and protease inhibitors (Roche). Cell membranes were prepared by differential centrifugation (200×g for 10 min, then 100000×g for 60 min). Membranes pellets were re-suspended in 50 mM Tris-HCL pH 7.4, 1 mM EDTA, 10 mM MgCl2, 250 mM sucrose and inhibitor of proteases. Purified CHO-CXCR3 cell membranes were frozen in liquid nitrogen and stored at −80° C.
A scintillation proximity assay was used for radioligand competition and saturation binding assays. For each assay point, 1 to 5 μg of human CXCR3 cell membranes were incubated in a final volume of 100 μl in 96 well plates (Corning, USA) for 120 minutes with shaking at room temperature in presence of 100 μg of wheat germ agglutinin-coated scintillation proximity assay beads (WGA-SPA, RPNQ0001, GE Healthcare), 0.05-0.1 nM [125I]I-TAC (Perkin Elmer, 1366Cie/mmol) or 0.1 nM [125I]IP-10 (Perkin Elmer, 2200 Cie/mmol) in binding buffer (50 mM HEPES/KOH pH 7.4, 10 mM MgCl2, 1 mM CaCl2, 0.1% bovine serum albumin (BSA), 100 mM NaCl with protease inhibitor cocktail tablets (Roche). Assay was performed in presence of 1% dimethylsulphoxide (Me2SO). Binding activity was determined using a 1450 Micro-beta scintillation counter (Wallac, UK). Ki values were calculated using the Cheng-Prusoff equation (Cheng and Prusoff, 1973) and represent the average of at least three independent dose response experiments.

CXCR3 [3] = biological target: T1, CXCR3; assay: CXCR3 Ca2+ mobilization (FLIPR), stable hCXCR3-CHO cell line, I-TAC stimulated; format: cell-based; parameters: host or cells: CHO cells stably expressing hCXCR3; settings: hCXCR3-CHO cells, I-TAC 100 nM stimulated Ca2+ response; read-out: Ca-ITAC
Procedure, shortened: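 Ca2+ mobilization triggered by I-TAC (100 nM) measured by FLIPR in a stable hCXCR3-CHO line. Dye-loaded (60 min) cells preincubated with compounds 20 minutes at room temperature; antagonism given relative to the compound-free I-TAC signal set at 100%.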

CXCR3 [4] = biological target: T1, CXCR3; assay: Chemotaxis assay IP10, L1.2 recombinant cells expressing hCXCR3; format: cell-based; settings: L1.2 hCXCR3 cells, IP10 around 0.3 nM, 4 hours
Description: Human CXCR3 cDNA was amplified by PCR from a human cells cDNA library (Clontech) and subcloned into pcDNA3.1 (Invitrogen). Murine pre-B L1.2 cells were transfected with hCXCR3-pcDNA3.1 and were grown at 37° C., 5% CO2 in RPMI 1640 medium (Invitrogen, USA) supplemented with 5% heat inactivated fetal calf serum (Cancerra, Australia), 2 mM glutamine (Invitrogen), 50 units ml−1 penicillin, 50 μml−1 streptomycin. Stable transfectant clonal populations were selected using 800 μg/ml geneticin.
L1.2 recombinant cells expressing the receptor hCXCR3 were maintained in culture in RPMI 1640 (invitrogen), 5% Foetal Bovine Serum (invitrogen), 2 mM glutamine(invitrogen), 50 u/ml penicillin/streptomycin (invitrogen), at 37° C.-5% CO2—in an H2O saturated incubator. In order to stimulate the expression of the receptor, cells were incubated overnight with 5 mM butyric acid (Sigma)
This mix of cells/compounds was then incubated at 37° C.-5% CO2—in an H2O saturated incubator during 30 minutes. Cells were then dispensed as a drop on each corresponding wells of the chemotaxis system. Cell migration was then induced at 37° C.-5% CO2—in an H2O incubator during 4 hours. Filters were then removed and cells that had migrated were transferred in a black plate (Costar). The plates were stored overnight at −80° C. Cell migration ratio was calculated using the cyquant dye (Molecular Probes-C7026).

SMILES | IC50 (CXCR3 [1]) [nM] | Ki (CXCR3 [2]) [µM] | IC50 (CXCR3 [3]) [nM] | IC50 (CXCR3 [4]) [µM]
CCOc1ccc(S(=O)(=O)N(Cc2ccc(-c3nnn[nH]3)cc2)Cc2ccccn2)cc1 [Example 42, 4-Ethoxy-N-(pyridin-2-ylmethyl)-N-[4-(2H-tetrazol-5-yl)benzyl]benzenesulfonamide] | 1040 | 0.161 | 520 | –
O=C(NCc1cccc(Cl)c1)c1ccc(CN(Cc2ccccc2)S(=O)(=O)c2ccc(Cl)cc2)nc1 [Example 8, 6-({benzyl[(4-chlorophenyl)sulfonyl]amino}methyl)-N-(3-chlorobenzyl)nicotinamide] | – | 0.64 | – | 0.369
CCOc1ccc(S(=O)(=O)N(Cc2ccccc2)Cc2ccc(C(=O)NCc3ccccc3)cc2)cc1 [Example 33] | – | 0.197 | 530 | –
O=C(NS(=O)(=O)Cc1ccccc1)c1ccc(CN(Cc2ccccn2)S(=O)(=O)c2ccc(Cl)cc2)cc1 [Example 11, N-(benzylsulfonyl)-4-{[[(4-chlorophenyl)sulfonyl](pyridin-2-ylmethyl)amino]methyl}benzamide] | – | 0.1 | – | 0.404
CCOc1ccc(S(=O)(=O)N(Cc2ccccc2)Cc2ccc(C(=O)NCC3CC3)cc2)cc1 [Example 18, 4-{[Benzyl-(4-ethoxy-benzenesulfonyl)-amino]-methyl}-N-cyclopropylmethylbenzamide] | 1680 | 0.78 | – | –
O=S(=O)(c1ccc(Cl)cc1)N(Cc1ccc(-c2nnn[nH]2)cc1)Cc1ccccn1 [Example 16, 4-chloro-N-(pyridin-2-ylmethyl)-N-[4-(1H-tetrazol-5-yl)benzyl]benzenesulfonamide] | – | 0.092 | – | 0.496
O=C(NCc1cccc(Cl)c1)c1ccc(CN(Cc2ccccn2)S(=O)(=O)c2ccc(Cl)cc2)cc1 [Example 6, N-(3-chlorobenzyl)-4-{[[(4-chlorophenyl)sulfonyl](pyridin-2-ylmethyl)amino]methyl}benzamide] | – | 0.123 | – | –
N#Cc1ccc(S(=O)(=O)N(Cc2ccc(C(=O)NC3(c4ccccc4)CC3)cc2)Cc2ccccn2)cc1 [Example 44] | 33 | 0.01 | 268 | 0.013
O=C(NCC1CC1)c1ccc(CN(Cc2ccccn2)S(=O)(=O)c2ccc(Cl)cc2)cc1 [Example 5, 4-{[[(4-chlorophenyl)sulfonyl](pyridin-2-ylmethyl)amino]methyl}-N-(cyclopropylmethyl)benzamide] | – | 0.168 | – | 0.2

Second part, the compound after the results:

IC50 (CXCR3 [1]) [nM] | Ki (CXCR3 [2]) [µM] | IC50 (CXCR3 [3]) [nM] | IC50 (CXCR3 [4]) [µM] | SMILES
– | 0.066 | – | 0.138 | O=C(NS(=O)(=O)c1cccc(Cl)c1)c1ccc(CN(Cc2ccccn2)S(=O)(=O)c2ccc(Cl)cc2)cc1 [Example 13, N-[(3-chlorophenyl)sulfonyl]-4{[[(4-chlorophenyl)sulfonyl](pyridin-2-ylmethyl)amino]methyl}benzamide]
– | 0.155 | – | 0.238 | O=C(NC1(c2ccccc2)CC1)c1ccc(CN(Cc2ccccc2)S(=O)(=O)c2ccc(Cl)cc2)cc1 [Example 10, 4-({benzyl[(4-chlorophenyl)sulfonyl]amino}methyl)-N-(1-phenylcyclopropyl)benzamide]
– | 1.65 | – | 0.865 | O=C(NS(=O)(=O)c1cccc(Cl)c1)c1ccc(CN(Cc2ccccc2)S(=O)(=O)c2ccc(Cl)cc2)cc1 [Example 12, N-[(3-chlorophenyl)sulfonyl]-4-{[benzyl[(4-chlorophenyl)sulfonyl]amino]methyl}benzamide]
– | 0.299 | – | 0.192 | O=C(NCc1cccs1)c1ccc(CN(Cc2ccccc2)S(=O)(=O)c2ccc(Cl)cc2)cc1 [Example 7, 4-({benzyl[(4-chlorophenyl)sulfonyl]amino}methyl)-N-(2-thienylmethyl)benzamide]
53 | 0.015 | 90 | 0.025 | O=C(NC1(c2ccccc2)CC1)c1ccc(CN(Cc2ccccn2)S(=O)(=O)c2ccc(Cl)cc2)cc1 [Example 40, 4-{[(4-Chloro-benzenesulfonyl)-pyridin-2-ylmethyl-amino]-methyl}-N-(1-phenyl-cyclopropyl)-benzamide]
